Measured values taken from ChEMBL document CHEMBL5046315, “CRCM5484: A BET-BDII Selective Compound with Differential Anti-leukemic Drug Modulation” (J Med Chem, 2022).
Activity calls are given as the source filed them. The rule behind the calls is not given here.

How the values were obtained:
CCRF-CEM [1] = assay: Potentiation of ponatinib-induced antileukemic activity against human CCRF-CEM cells at 4.3 uM in presence of bone-marrow derived stromal cell-conditioned medium; type: functional, cell-based
MOLM-14 [2] = assay: Potentiation of AG-221-induced antileukemic activity against human MOLM-14 cells at 4.3 uM in presence of bone-marrow derived stromal cell-conditioned medium; type: functional, cell-based
U-937 [3] = assay: Potentiation of temsirolimus-induced antileukemic activity against human U-937 cells at 4.3 uM in presence of bone-marrow derived stromal cell-conditioned medium; type: functional, cell-based
MOLM-14 [4] = assay: Potentiation of SGI-110-induced antileukemic activity against human MOLM-14 cells at 4.3 uM in presence of bone-marrow derived stromal cell-conditioned medium; type: functional, cell-based
CCRF-CEM [5] = assay: Potentiation of trametinib-induced antileukemic activity against human CCRF-CEM cells at 4.3 uM in presence of bone-marrow derived stromal cell-conditioned medium; type: functional, cell-based
MOLM-14 [6] = assay: Potentiation of SGI-1027-induced antileukemic activity against human MOLM-14 cells at 4.3 uM in presence of bone-marrow derived stromal cell-conditioned medium; type: functional, cell-based
CCRF-CEM [7] = assay: Potentiation of temsirolimus-induced antileukemic activity against human CCRF-CEM cells at 4.3 uM in presence of bone-marrow derived stromal cell-conditioned medium; type: functional, cell-based
MOLM-14 [8] = assay: Potentiation of metformin -induced antileukemic activity against human MOLM-14 cells at 4.3 uM in presence of bone-marrow derived stromal cell-conditioned medium; type: functional, cell-based
U-937 [9] = assay: Potentiation of BKM120-induced antileukemic activity against human U-937 cells at 4.3 uM in presence of bone-marrow derived stromal cell-conditioned medium; type: functional, cell-based
[10] = target: Bromodomain-containing protein 2 (Homo sapiens, UniProt P25440); assay: Inhibition of BRD2-BD2 (unknown origin) incubated for 6 hrs by HTRF method
CCRF-CEM [11] = assay: Potentiation of everolimus-induced antileukemic activity against human CCRF-CEM cells at 4.3 uM in presence of bone-marrow derived stromal cell-conditioned medium; type: functional, cell-based
CCRF-CEM [12] = assay: Potentiation of 17AAG-induced antileukemic activity against human CCRF-CEM cells at 4.3 uM in presence of bone-marrow derived stromal cell-conditioned medium; type: functional, cell-based
MOLM-14 [13] = assay: Potentiation of BKM120-induced antileukemic activity against human MOLM-14 cells at 4.3 uM in presence of bone-marrow derived stromal cell-conditioned medium; type: functional, cell-based
U-937 [14] = assay: Potentiation of entinostat-induced antileukemic activity against human U-937 cells at 4.3 uM in presence of bone-marrow derived stromal cell-conditioned medium; type: functional, cell-based
U-937 [15] = assay: Potentiation of dexamethasone-induced antileukemic activity against human U-937 cells at 4.3 uM in presence of bone-marrow derived stromal cell-conditioned medium; type: functional, cell-based
MOLM-14 [16] = assay: Potentiation of seliciclib-induced antileukemic activity against human MOLM-14 cells at 4.3 uM in presence of bone-marrow derived stromal cell-conditioned medium; type: functional, cell-based
MOLM-14 [17] = assay: Potentiation of niotinib-induced antileukemic activity against human MOLM-14 cells at 4.3 uM in presence of bone-marrow derived stromal cell-conditioned medium; type: functional, cell-based
CCRF-CEM [18] = assay: Potentiation of niotinib-induced antileukemic activity against human CCRF-CEM cells at 4.3 uM in presence of bone-marrow derived stromal cell-conditioned medium; type: functional, cell-based
MOLM-14 [19] = assay: Potentiation of asparaginase-induced antileukemic activity against human MOLM-14 cells at 4.3 uM in presence of bone-marrow derived stromal cell-conditioned medium; type: functional, cell-based
U-937 [20] = assay: Potentiation of prima1-induced antileukemic activity against human U-937 cells at 4.3 uM in presence of bone-marrow derived stromal cell-conditioned medium; type: functional, cell-based
U-937 [21] = assay: Potentiation of bosutinib-induced antileukemic activity against human U-937 cells at 4.3 uM in presence of bone-marrow derived stromal cell-conditioned medium; type: functional, cell-based
U-937 [22] = assay: Potentiation of lapatinib-induced antileukemic activity against human U-937 cells at 4.3 uM in presence of bone-marrow derived stromal cell-conditioned medium; type: functional, cell-based
CCRF-CEM [23] = assay: Potentiation of carfilzomib-induced antileukemic activity against human CCRF-CEM cells at 4.3 uM in presence of bone-marrow derived stromal cell-conditioned medium; type: functional, cell-based
CCRF-CEM [24] = assay: Potentiation of -nutlin 3-induced antileukemic activity against human CCRF-CEM cells at 4.3 uM in presence of bone-marrow derived stromal cell-conditioned medium; type: functional, cell-based
CCRF-CEM [25] = assay: Potentiation of birinapant-induced antileukemic activity against human CCRF-CEM cells at 4.3 uM in presence of bone-marrow derived stromal cell-conditioned medium; type: functional, cell-based
MOLM-14 [26] = assay: Potentiation of nelarabine-induced antileukemic activity against human MOLM-14 cells at 4.3 uM in presence of bone-marrow derived stromal cell-conditioned medium; type: functional, cell-based
[27] = tested on: Acute myeloid leukemic cell; assay: Potentiation of birinapant-induced antileukemic activity against patient derived mouse xenografted acute myeloid leukemic cells assessed as cell viability at 2 uM measured after 72 to 144 hrs by Cell-titre glo luminescent assay; type: functional, cell-based; conditions: Homo sapiens, time lower […], time upper 144.0 hrs
MOLM-14 [28] = assay: Potentiation of vorinostat-induced antileukemic activity against human MOLM-14 cells at 4.3 uM in presence of bone-marrow derived stromal cell-conditioned medium; type: functional, cell-based
MOLM-14 [29] = assay: Potentiation of daunorubicine-induced antileukemic activity against human MOLM-14 cells at 4.3 uM in presence of bone-marrow derived stromal cell-conditioned medium; type: functional, cell-based
U-937 [30] = assay: Potentiation of AGI-5198-induced antileukemic activity against human U-937 cells at 4.3 uM in presence of bone-marrow derived stromal cell-conditioned medium; type: functional, cell-based

Bromodomain-containing protein 2, sequence (P25440 whole entry): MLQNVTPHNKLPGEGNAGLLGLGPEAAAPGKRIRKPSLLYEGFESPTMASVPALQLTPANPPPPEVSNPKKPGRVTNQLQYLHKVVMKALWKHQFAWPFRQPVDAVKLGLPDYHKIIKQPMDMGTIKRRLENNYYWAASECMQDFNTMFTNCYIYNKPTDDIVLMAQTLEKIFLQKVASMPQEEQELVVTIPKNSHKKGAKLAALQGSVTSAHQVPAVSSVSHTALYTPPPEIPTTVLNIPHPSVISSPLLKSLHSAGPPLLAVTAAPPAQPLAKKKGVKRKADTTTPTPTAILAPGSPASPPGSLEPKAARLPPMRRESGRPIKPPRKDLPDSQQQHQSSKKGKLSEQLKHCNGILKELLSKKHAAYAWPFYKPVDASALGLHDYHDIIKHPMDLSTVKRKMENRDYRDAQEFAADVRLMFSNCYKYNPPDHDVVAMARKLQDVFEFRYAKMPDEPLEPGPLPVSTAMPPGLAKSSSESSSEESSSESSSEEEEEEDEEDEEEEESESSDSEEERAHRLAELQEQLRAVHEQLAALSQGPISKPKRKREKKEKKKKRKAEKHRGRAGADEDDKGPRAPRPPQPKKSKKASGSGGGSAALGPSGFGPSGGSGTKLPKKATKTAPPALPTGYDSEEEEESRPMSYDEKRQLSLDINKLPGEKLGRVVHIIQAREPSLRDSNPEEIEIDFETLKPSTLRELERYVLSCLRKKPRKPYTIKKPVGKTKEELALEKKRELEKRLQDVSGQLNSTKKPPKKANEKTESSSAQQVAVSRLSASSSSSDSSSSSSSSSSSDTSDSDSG

**Q.** Which Activity (CCRF-CEM [1]) does the source give for `CC(=O)N1CCc2c(sc3nc(SCC(=O)Nc4cccnc4C)n(Cc4ccco4)c(=O)c23)C1` here?
**A.** Its Activity is “inactive”.

**Q.** And the Activity (MOLM-14 [2])?
**A.** Its Activity is “inactive”.

**Q.** What about the Activity (U-937 [3]) of the same molecule?
**A.** Its Activity is “inactive”.

**Q.** What about the Activity (MOLM-14 [4]) of the same molecule?
**A.** Its Activity is “inactive”.

**Q.** What about the Activity (CCRF-CEM [5]) of the same molecule?
**A.** Its Activity is “inactive”.

**Q.** And the Activity (MOLM-14 [6])?
**A.** Its Activity is “inactive”.

**Q.** What about the Activity (CCRF-CEM [7]) of the same molecule?
**A.** Its Activity is “inactive”.

**Q.** What about the Activity (MOLM-14 [8]) of the same molecule?
**A.** The Activity was “inactive”.

**Q.** And the Activity (U-937 [9])?
**A.** The Activity was “inactive”.

**Q.** What about the IC50 [10] of the same molecule?
**A.** The IC50 was 71 nM.

**Q.** And the Activity (CCRF-CEM [11])?
**A.** The Activity was “inactive”.

**Q.** What about the Activity (CCRF-CEM [12]) of the same molecule?
**A.** The Activity was “inactive”.

**Q.** And the Activity (MOLM-14 [13])?
**A.** Its Activity is “inactive”.

**Q.** What about the Activity (U-937 [14]) of the same molecule?
**A.** The Activity was “inactive”.

**Q.** And the Activity (U-937 [15])?
**A.** The Activity was “inactive”.

**Q.** And the Activity (MOLM-14 [16])?
**A.** The Activity was “inactive”.

**Q.** What about the Activity (MOLM-14 [17]) of the same molecule?
**A.** The Activity was “inactive”.

**Q.** What about the Activity (CCRF-CEM [18]) of the same molecule?
**A.** Its Activity is “inactive”.

**Q.** And the Activity (MOLM-14 [19])?
**A.** Its Activity is “inactive”.

**Q.** What about the Activity (U-937 [20]) of the same molecule?
**A.** The Activity was “inactive”.

**Q.** What about the Activity (U-937 [21]) of the same molecule?
**A.** The Activity was “inactive”.

**Q.** What about the Activity (U-937 [22]) of the same molecule?
**A.** The Activity was “inactive”.

**Q.** What about the Activity (CCRF-CEM [23]) of the same molecule?
**A.** The Activity was “inactive”.

**Q.** And the Activity (CCRF-CEM [24])?
**A.** The Activity was “inactive”.

**Q.** And the Activity (CCRF-CEM [25])?
**A.** The Activity was “inactive”.

**Q.** And the Activity (MOLM-14 [26])?
**A.** Its Activity is “inactive”.

**Q.** And the Activity [27]?
**A.** Its Activity is “Active”.

**Q.** And the Activity (MOLM-14 [28])?
**A.** The Activity was “inactive”.

**Q.** And the Activity (MOLM-14 [29])?
**A.** The Activity was “inactive”.

**Q.** And the Activity (U-937 [30])?
**A.** The Activity was “inactive”.
